pIC50: −log10 of the molar value.

One test deals with osteoclasts. The test can be described thus: bone slice assay: bone resorption by isolated osteoclasts (scanning electron microscopy). To be noted: isolated osteoclasts on bone slices. The class given is cell-based, neonatal rat. The method, then: 155, (1985), as well as in Endocrinology, Vol. 116, p. 234 (1985). In this assay, osteoclasts are mechanically disaggregated from neonatal rat long bones into Hepes-buffered medium 199 (available from Flow Laboratories of Irvine, […] in the United Kingdom). The suspension is agitated with a pipette and the larger fragments were allowed to settle for a period of 30 seconds. The cells are then added to two wells of a multiwell-dish containing bone slices, with each of said slices measuring 2.5 mm^2. After incubating at 37° C. for a period of 15 minutes, the aforesaid bone slices are then removed, washed in medium 199 and placed in individual wells of a 96-well plate (also available from Flow Laboratories). These latter bone slices are then incubated overnight in a total volume of […] of culture medium consisting of 10% newborn calf-serum (from Flow Laboratories) in Hanks-buffered MEM (also from Flow Laboratories) in the presence or absence of the test compound. Bone resorption is quantified by means of scanning electron microscopy. […] The number and size of the osteoclastic excavations, and the plan area of bone resorbed is recorded. Differences between groups are then analyzed by means of Student's t-Test.

In the next test the target is T1, gastric H^+ /K^+ -ATPase (Sus scrofa, UniProt P19156).
T1 construct: preparing the microsomes from hog gastric mucosa; from tissue; host or cells: hog gastric mucosa (microsomes)
T1 sequence (P19156 2-1034 limits assumed): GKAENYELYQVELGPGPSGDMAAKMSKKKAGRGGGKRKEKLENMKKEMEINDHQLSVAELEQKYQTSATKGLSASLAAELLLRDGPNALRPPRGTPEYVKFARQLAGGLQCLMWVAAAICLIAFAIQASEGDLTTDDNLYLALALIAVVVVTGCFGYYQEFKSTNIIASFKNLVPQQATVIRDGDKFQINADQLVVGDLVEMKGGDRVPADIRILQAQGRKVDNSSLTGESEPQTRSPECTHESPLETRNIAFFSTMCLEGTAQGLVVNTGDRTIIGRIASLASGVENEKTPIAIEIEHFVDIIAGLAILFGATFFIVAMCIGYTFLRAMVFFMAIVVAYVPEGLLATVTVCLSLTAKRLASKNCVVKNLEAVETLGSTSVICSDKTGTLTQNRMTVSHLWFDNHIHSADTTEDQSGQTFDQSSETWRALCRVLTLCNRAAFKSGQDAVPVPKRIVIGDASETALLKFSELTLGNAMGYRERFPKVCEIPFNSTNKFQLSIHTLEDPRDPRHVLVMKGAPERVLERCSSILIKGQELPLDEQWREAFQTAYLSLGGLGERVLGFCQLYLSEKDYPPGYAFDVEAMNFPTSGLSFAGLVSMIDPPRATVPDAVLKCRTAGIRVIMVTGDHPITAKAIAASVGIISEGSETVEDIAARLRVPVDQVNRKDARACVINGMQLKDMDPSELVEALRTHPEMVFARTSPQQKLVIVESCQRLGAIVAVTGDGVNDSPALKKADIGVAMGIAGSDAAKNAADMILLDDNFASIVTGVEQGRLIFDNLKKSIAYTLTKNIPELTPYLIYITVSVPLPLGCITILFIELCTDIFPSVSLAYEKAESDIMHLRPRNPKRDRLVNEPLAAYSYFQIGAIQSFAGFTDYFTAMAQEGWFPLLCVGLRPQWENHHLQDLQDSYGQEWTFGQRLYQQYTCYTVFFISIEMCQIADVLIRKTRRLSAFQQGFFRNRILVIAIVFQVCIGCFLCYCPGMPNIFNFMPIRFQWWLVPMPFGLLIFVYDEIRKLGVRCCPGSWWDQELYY
T1 sequence (P18434 whole entry partner): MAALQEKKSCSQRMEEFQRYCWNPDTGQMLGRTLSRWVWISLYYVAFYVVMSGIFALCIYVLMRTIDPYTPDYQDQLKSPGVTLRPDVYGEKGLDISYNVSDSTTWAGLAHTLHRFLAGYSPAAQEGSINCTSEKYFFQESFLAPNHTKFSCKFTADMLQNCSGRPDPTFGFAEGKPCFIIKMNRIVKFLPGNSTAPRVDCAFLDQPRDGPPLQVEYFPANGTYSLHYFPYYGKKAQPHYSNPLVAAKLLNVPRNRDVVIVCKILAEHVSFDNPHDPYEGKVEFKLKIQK
As to the kind of experiment: gastric H+/K+-ATPase inhibition in isolated porcine gastric microsomes (phosphate release). The class given is biochemical. On the procedure:
The activity of the compounds of the present invention as anti-ulcer agents, useful in the treatment of gastric disease in mammals, such as peptic ulcers, etc., is assessed by their ability to inhibit gastric H^+ /K^+ -ATPase, using isolated porcine gastric microsomes and essentially employing a modification of the method first described by G. Saccomani et al., as initially reported in Biochimica Biophysica Acta, Vol. 465, p. 311 (1977). The modification involves preparing the microsomes from hog gastric mucosa according to the procedure first described by L-A. Yeh et al., in Membrane Biochemistry, Vol. 9, p. 129 (1991). The H^+ /K^+ -ATPase enzyme activity is assayed according to the procedure described by N. Chang et al., in Biochimica Biophysica Acta, Vol. 464, p. 313 (1977), using a medium containing […], 3 mM ATP, 50 mM Tris-HCl (pH 7.4) and 2 mM MgCl2 with or without 10 mM KCl in a final volume of 1.1 mL. The incubation step is initially carried out at 37° C. for a period of 15 minutes. The reaction is then terminated by the addition of 100 μL of 50% TCA (trichloroacetic acid). Phosphate release is next measured spectrophotometrically in the manner described by C. H. Fiske et al., in the Journal of Biological Chemistry, Vol. 66, p. 375 (1925).

A word on the inhibition: it is the relative decrease from the control value, in per cent. Lower therefore signals a response near the control. `CCOC(=O)CCC(=O)c1cnc2c(OC)cccc2c1Nc1ccccc1C` [Example 1, 3-(3-ethoxycarbonylpropionyl)-8-methoxy-4-(2-methylphenylamino)quinoline]: the minimal effective concentration with osteoclasts (Rattus norvegicus, Osteoclast, overnight incubation, dose-responsive, read-out: concentration level at which statistically significant inhibition of bone resorption occurs) amounted to 0.1 µM. Further, in the test on osteoclasts, the “inhibition of lacunae formation and bone resorption (in words)” value is “potent inhibitor of lacunae formation and of resultant bone resorption”. For the same compound, the inhibition at 10 µM on gastric H^+ /K^+ -ATPase (at 10 μM) was roughly 50%. In addition, at gastric H^+ /K^+ -ATPase (porcine gastric microsomes), the “nature of H+/K+-ATPase inhibition” value was “both reversibly and specifically”. Further, the pIC50 on gastric H^+ /K^+ -ATPase (porcine gastric microsomes, 37° C., 15 minutes, pH 7.4, read-out: IC50 value range, inhibition of gastric H+/K+-ATPase) was 4.70 to 5.00.

The values above are taken from US5362743A, “Aminoquinoline derivatives” (Pfizer Inc., priority 1993, dated 1994).
